Where two headings read alike, the source gives them in different places.
Experiments:
[1] = test system: LN18 MTAP(-/-) cells; test: Inhibition of proliferation of LN18 MTAP(-/-) cells (CellTiter-Glo); format: cell-based; settings: cell proliferation, 7 days
Protocol: Test 5: Assay for Inhibitory Activity of Compounds against LN18 MTAP(-/-) Cell Proliferation
(§1) Materials and Cells: The LN18 MTAP(-/-) cell line was provided by Cobioer Biosciences (China). Cell culture media, fetal bovine serum (FBS), and penicillin-streptomycin were purchased from Thermo Fisher Scientific (USA). 384-well plates were purchased from PerkinElmer (USA). The CellTiter-Glo assay kit was purchased from Promega (USA).
Cell Culture: LN18 MTAP(-/-) cells were cultured in a medium supplemented with 10% fetal bovine serum (FBS) and 1% penicillin-streptomycin at 37°C with 5% CO2. Only cells in the logarithmic growth phase were used for experiments.
(§2) Cell Proliferation Inhibition Assay: The antiproliferative activity of the compounds against LN18 MTAP(-/-) cells was assessed using the CellTiter-Glo assay kit. Cell suspensions were adjusted to the appropriate density and seeded into 384-well plates at a volume of 40 µL per well, then incubated overnight at 37°C with 5% CO2. Compounds (40 nL) were added to each well to achieve final concentrations ranging from 0 to 1,000 nM (starting concentration 1,000 nM, 3-fold serial dilutions, 9 dose points), with a final DMSO concentration of 0.25%. The cell plates were incubated at 37°C with 5% CO2 for 7 days. Subsequently, 40 µL of CellTiter-Glo reagent was added to measure cell viability.

[2] = test system: U87MG MTAP(-/-) cells; test: Inhibition of proliferation of U87MG MTAP(-/-) cells (CellTiter-Glo); format: cell-based; settings: Homo sapiens, U-87 MG, 144 h, cell proliferation, 6 days
Procedure, shortened: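 U87MG MTAP(-/-) cells in log phase, seeded overnight, then exposed 6 days at 37 °C, 5% CO2 to compound at 10,000 nM top, 3-fold dilutions, 10 points, 0.5% DMSO final. Viability read by CellTiter-Glo luminescence.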

[3] = test system: SW780; test: Mini cell panel: inhibition of proliferation of SW780 cells; format: cell-based
Excerpt: (§3) Test 9: Mini Cell Panel: Assay for Inhibitory Activity of Compounds against Proliferation of 20 Tumor Cell Lines
(§4) Materials and Cells: Fifteen MTAP(-/-) cell lines and five MTAP wild-type cell lines were purchased from ATCC (USA). Cell culture media, fetal bovine serum (FBS), and penicillin-streptomycin were purchased from Thermo Fisher Scientific (USA). 384-well plates were purchased from PerkinElmer (USA). The CellTiter-Glo assay kit was purchased from Promega (USA). Paclitaxel was used as the control compound.

[4] = test system: Ht 1080; test: Mini cell panel: inhibition of proliferation of Ht 1080 cells; format: cell-based
Excerpt: as §3
as §4, with “Paclitaxel was used as the control compound.” left out

[5] = test system: MKN-45; test: Mini cell panel: inhibition of proliferation of MKN-45 cells; format: cell-based
Excerpt: as §3, §4

[6] = test system: A549; test: Mini cell panel: inhibition of proliferation of A549 cells; format: cell-based
Excerpt: as §3, §4

[7] = test system: NCI-H647; test: Mini cell panel: inhibition of proliferation of NCI-H647 cells; format: cell-based
Excerpt: as §3, §4

[8] = test system: SW1573; test: Mini cell panel: inhibition of proliferation of SW1573 cells; format: cell-based
Excerpt: as §3, §4

[9] = test system: BxPc-3; test: Mini cell panel: inhibition of proliferation of BxPc-3 cells; format: cell-based
Excerpt: as §3, §4

[10] = test system: PSN-1; test: Mini cell panel: inhibition of proliferation of PSN-1 cells; format: cell-based
Excerpt: as §3, §4

[11] = test system: Calu-1; test: Mini cell panel: inhibition of proliferation of Calu-1 cells; format: cell-based
Excerpt: as §3, §4

[12] = test system: SU-DHL-4; test: Mini cell panel: inhibition of proliferation of SU-DHL-4 cells; format: cell-based
Excerpt: as §3, §4

[13] = test system: Aspc-1; test: Mini cell panel: inhibition of proliferation of Aspc-1 cells; format: cell-based
Excerpt: as §3, §4

[14] = test system: CFPAC-1; test: Mini cell panel: inhibition of proliferation of CFPAC-1 cells; format: cell-based
Excerpt: as §3, §4

[15] = test system: five MTAP wild-type cell lines; test: Mini cell panel: summary over the MTAP wild-type cell lines; format: cell-based
Excerpt: as §3, §4

[16] = test system: LU99 MTAP(-/-) cells; test: Inhibition of proliferation of LU99 MTAP(-/-) cells (CellTiter-Glo); format: cell-based; settings: cell proliferation, 6 days
Protocol: Test 3: Compound's inhibitory activity on proliferation of LU99 MTAP (-/-) cells.
as §1, with “LU99” for “LN18”, “purchased from” for “provided by”, “media and” for “media,”, “(FBS)” for “(FBS), and penicillin-streptomycin”
Cell Culture: LU99 MTAP(-/-) cells were cultured in a medium supplemented with 10% fetal bovine serum (FBS) at 37°C with 5% CO2. Only cells in the logarithmic growth phase were used for experiments.
as §2, with “against LU99” for “against LN18”, “nM, 2.5-fold” for “nM, 3-fold”, “dilutions, 10” for “dilutions, 9”, “of 0.2%.” for “of 0.25%.”, “for 6” for “for 7”

[17] = test system: NCI-H838 MTAP(-/-) cells; test: Inhibition of proliferation of NCI-H838 MTAP(-/-) cells (CellTiter-Glo); settings: read-out: IC50(nM) NCI-H838 MTAP(-/-)
[18] = Homo sapiens, SW780, MTAP (-/-)
[19] = Homo sapiens, HT-1080, MTAP (-/-)
[20] = Homo sapiens, MKN-45, MTAP (-/-)
[21] = Homo sapiens, NCI-H647, MTAP (-/-)
[22] = Homo sapiens, SW1573, MTAP (-/-)
[23] = Homo sapiens, BXPC-3, MTAP (-/-)
[24] = Homo sapiens, Calu-1, MTAP Wild type
[25] = Homo sapiens, SU-DHL-4, MTAP Wild type
[26] = Homo sapiens, ASPC1, MTAP Wild type
[27] = Homo sapiens, CFPAC-1, MTAP Wild type
[28] = read-out: median IC50, MTAP wild-type cells
[29] = span over the cell lines, read-out: IC50 values (range) against MTAP wild-type cells

Compound	IC50 [2]	IC50 ([17]; Homo sapiens, NCI-H838, 144 h)	IC50 ([1]; Homo sapiens, LN-18, 168 h)	IC50 [3, 18]	IC50 [4, 19]	IC50 [5, 20]	IC50 ([6]; Homo sapiens, A549, MTAP (-/-))	IC50 [7, 21]	IC50 [8, 22]	IC50 [9, 23]	IC50 ([10]; Homo sapiens, PSN1, MTAP (-/-))	IC50 [11, 24]	IC50 [12, 25]	IC50 [13, 26]	IC50 [14, 27]	IC50 [15, 28]	IC50 [15, 29]	IC50 ([16]; Homo sapiens, Lu-99, 144 h)	other results
[2H]C([2H])([2H])N(C(=O)c1ccc2nc(N)c3cncn3c2c1)[C@@H]1COc2cc(C(F)(F)F)ccc21 [Example 16, (S)-4-amino-N-(methyl-d3)-N-(6-(trifluoromethyl)-2,3-dihydrobenzofuran-3-yl)imidaz o[1,5-a]quinoxaline-8-carboxamide]	70.8 nM	66.8 nM	6.57 nM	–	–	–	–	–	–	–	–	–	–	–	–	–	–	12.9 nM	–
CN(C(=O)c1ccc2nc(N)c3cncn3c2c1)[C@@H]1COc2cc(C(F)(F)F)ccc21 [Example 107, (S)-4-amino-N-methy 1-N-(6-(trifluoromethy 1)-2,3-dihydrobenzofuran-3-yl)imidazo[1,5-a]quinoxaline-8-carboxamide]	111 nM	67.8 nM	11.1 nM	210 nM	10.4 nM	43.1 nM	69.1 nM	30 nM	44.4 nM	32.7 nM	30.9 nM	> 10000 nM	3100 nM	> 10000 nM	781 nM	3330 nM	≥ 781 nM	13.2 nM	–
(S)-4-amino-7-fluoro-N-methyl-N-(6-(triflu oromethyl)-2,3-dihydr obenzofuran-3-yl)imi dazo[1,5-a]quinoxalin e-8-carboxamide [Example 29]	–	–	–	–	–	–	–	–	–	–	–	–	–	–	–	3300 nM	–	–	IC50 [16]: 10.7 nM; IC50 [1]: 5.42 nM; IC50 ([3]; MTAP (-/-)): 660 nM; IC50 ([4]; MTAP (-/-)): 36.7 nM; IC50 ([5]; MTAP (-/-)): 39.8 nM; IC50 ([6]; MTAP (-/-)): 8.5 nM; IC50 ([7]; MTAP (-/-)): 41.6 nM; IC50 ([8]; MTAP (-/-)): 47.3 nM; IC50 ([9]; MTAP (-/-)): 57.2 nM; IC50 ([10]; MTAP (-/-)): 24.1 nM; IC50 ([11]; MTAP Wild type): 2300 nM; IC50 ([12]; MTAP Wild type): > 10000 nM; IC50 ([13]; MTAP Wild type): > 10000 nM; IC50 ([14]; MTAP Wild type): 1060 nM; IC50 ([17]; cell proliferation, 6 days, CellTiter-Glo): 76.8 nM

Second part, led by results:

IC50 [2]	IC50 ([17]; Homo sapiens, NCI-H838, 144 h)	Compound	IC50 ([1]; Homo sapiens, LN-18, 168 h)	IC50 [3, 18]	IC50 [4, 19]	IC50 [5, 20]	IC50 ([6]; Homo sapiens, A549, MTAP (-/-))	IC50 [7, 21]	IC50 [8, 22]	IC50 [9, 23]	IC50 ([10]; Homo sapiens, PSN1, MTAP (-/-))	IC50 [11, 24]	IC50 [12, 25]	IC50 [13, 26]	IC50 [14, 27]	IC50 [15, 28]	IC50 [15, 29]	IC50 ([16]; Homo sapiens, Lu-99, 144 h)	other results
93.1 nM	–	CN(C(=O)c1cc2c(cn1)nc(N)c1cncn12)[C@@H]1COc2cc(C(F)(F)F)ccc21 [Example 4, (S)-4-amino-N-methy 1-N-(6-(trifluoromethy 1)-2,3-dihydrobenzofuran-3-yl)imidazo[1,5-a]pyrido[3,4-e]pyrazine-8-carboxamide]	7.85 nM	177 nM	2.4 nM	17.8 nM	20.2 nM	16 nM	662 nM	15.2 nM	12.6 nM	3370 nM	1260 nM	6600 nM	407 nM	1710 nM	407 to 6600 nM	–	–
58.5 nM	57.6 nM	[2H]C([2H])([2H])N(C(=O)c1cc2c(cc1F)nc(N)c1cncn12)[C@@H]1COc2cc(C(F)(F)F)ccc21 [Example 41, (S)-4-amino-7-fluoro-N-(methyl-d3)-N-(6-(trifluoromethyl)-2,3-di hydrobenzofuran-3-yl)imidazo[1,5-a]quinox aline-8-carboxamide]	14.5 nM	–	–	–	–	–	–	–	–	–	–	–	–	–	–	9.56 nM	–
